Patent US8377884B2, “Variants of C-type natriuretic peptides” (Biomarin Pharmaceutical Inc., priority 2007, dated 2013)
Like-named read-outs stand apart in the source and are kept apart here. Bridge positions count the residues as written; N and C are the ends. Square brackets hold non-standard residues; d marks the D form. Peptide text beside a SMILES is read from it. tBuAla = CC(C)(C)C[C@H](N)C(=O)O; Cit = NC(=O)NCCC[C@H](N)C(=O)O

Biological target: T1, NPR-B (Mus musculus, UniProt Q6VVW5)
T1 construct: Murine NIH3T3 cells express endogenously the CNP signaling receptor, NPR-B; endogenous in cells; host or cells: NIH3T3 (murine fibroblasts)
T1 sequence (Q6VVW5 17-1047): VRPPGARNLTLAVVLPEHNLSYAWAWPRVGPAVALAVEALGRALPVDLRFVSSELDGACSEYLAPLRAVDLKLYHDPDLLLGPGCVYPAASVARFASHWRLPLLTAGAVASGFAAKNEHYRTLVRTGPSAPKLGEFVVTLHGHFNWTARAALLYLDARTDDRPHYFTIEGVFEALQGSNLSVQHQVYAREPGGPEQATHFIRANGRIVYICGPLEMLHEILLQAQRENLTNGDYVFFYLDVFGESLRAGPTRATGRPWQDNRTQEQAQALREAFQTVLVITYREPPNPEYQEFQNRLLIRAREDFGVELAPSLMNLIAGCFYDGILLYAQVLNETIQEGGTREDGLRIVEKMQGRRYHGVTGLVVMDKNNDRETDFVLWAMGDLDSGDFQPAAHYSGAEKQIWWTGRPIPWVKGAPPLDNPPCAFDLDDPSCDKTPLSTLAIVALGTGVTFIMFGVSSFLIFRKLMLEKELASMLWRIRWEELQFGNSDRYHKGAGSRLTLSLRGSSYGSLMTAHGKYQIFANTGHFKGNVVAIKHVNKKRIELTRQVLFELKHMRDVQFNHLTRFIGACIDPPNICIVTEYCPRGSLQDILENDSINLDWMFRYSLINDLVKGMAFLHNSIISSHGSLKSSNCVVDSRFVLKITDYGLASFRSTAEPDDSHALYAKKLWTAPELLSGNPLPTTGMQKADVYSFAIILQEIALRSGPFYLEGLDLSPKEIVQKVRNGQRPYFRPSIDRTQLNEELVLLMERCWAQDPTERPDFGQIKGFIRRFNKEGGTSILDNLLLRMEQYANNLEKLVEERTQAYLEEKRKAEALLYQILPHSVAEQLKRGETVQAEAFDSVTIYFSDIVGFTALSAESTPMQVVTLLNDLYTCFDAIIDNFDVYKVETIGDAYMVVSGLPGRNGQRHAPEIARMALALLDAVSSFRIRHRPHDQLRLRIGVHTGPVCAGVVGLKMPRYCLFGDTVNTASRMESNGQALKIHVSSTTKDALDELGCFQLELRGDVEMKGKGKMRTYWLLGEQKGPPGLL
Experiment: Stimulation of cGMP production in NIH3T3 cells
Type: cell-based, Murine
Details: for cGMP response relative to 1 uM CNP22 (%) at 0.01 µM: read-out: cGMP Response rel. to 1 uM CNP22, 10 nM; for cGMP response relative to 1 uM CNP22 (%) at 1 µM: read-out: cGMP Response rel. to 1 uM CNP22, 1 uM

[1] = NIH3T3 cells, 10 nM natriuretic peptide, normalized to cell number and cGMP production with 1 uM wtCNP22
[2] = NIH3T3 cells, 1 uM natriuretic peptide, normalized to cell number and cGMP production with 1 uM wtCNP22

| SMILES | cGMP response relative to 1 uM CNP22 (%) at 0.01 µM [1] | cGMP response relative to 1 uM CNP22 (%) at 1 µM [2] | cGMP response relative to 1 uM CNP22 (%) at 0.01 µM (NIH3T3, […]) | cGMP response relative to 1 uM CNP22 (%) at 1 µM (NIH3T3, […]) |
| --- | --- | --- | --- | --- |
| CC[C@H](C)[C@@H]1NC(=O)[C@H](CCCNC(=N)N)NC(=O)[C@H](CC(=O)O)NC(=O)[C@H](CC(C)C)NC(=O)[C@H](CCCCN)NC(=O)[C@H](CC(C)C)NC(=O)[C@H](C(C)C)NC(=O)[C@H](Cc2ccccc2)NC(=O)[C@@H](NC(=O)CNC(=O)[C@H](CCCNC(=N)N)NC(=O)[C@H](CO)NC(=O)[C@H](CC(C)C)NC(=O)CN)CSSC[C@@H](C(=O)O)NC(=O)CNC(=O)[C@H](CC(C)C)NC(=O)CNC(=O)[C@H](CO)NC(=O)[C@H](CCSC)NC(=O)[C@H](CO)NC(=O)CNC1=O [AA] (H-GLSRGCFVLKLDRIGSMSGLGC-OH; disulfide 6-22 (inferred); N-terminus and C-terminus assumed) | 3% | 25% | – | – |
| CC[C@H](C)[C@@H]1NC(=O)[C@H](CCCNC(=N)N)NC(=O)[C@H](CC(=O)O)NC(=O)[C@H](CC(C)C)NC(=O)[C@H](CCCCN)NC(=O)[C@H](CC(C)C)NC(=O)[C@H](CO)NC(=O)[C@H](Cc2ccccc2)NC(=O)[C@@H](NC(=O)CNC(=O)[C@H](CCCNC(=N)N)NC(=O)[C@H](CO)NC(=O)[C@H](CC(C)C)NC(=O)CN)CSSC[C@@H](C(=O)O)NC(=O)CNC(=O)[C@H](CC(C)C)NC(=O)CNC(=O)[C@H](CO)NC(=O)[C@H](CCSC)NC(=O)[C@H](CO)NC(=O)CNC1=O [AB] (H-GLSRGCFSLKLDRIGSMSGLGC-OH; disulfide 6-22 (inferred); N-terminus and C-terminus assumed) | 26 ± 26% | 86 ± 17% | – | – |
| CC[C@H](C)[C@@H]1NC(=O)[C@H](CCCNC(=N)N)NC(=O)[C@H](CC(=O)O)NC(=O)[C@H](CC(C)C)NC(=O)[C@H](CCCCN)NC(=O)[C@H](CC(C)C)NC(=O)CNC(=O)[C@H](Cc2ccccc2)NC(=O)[C@@H](NC(=O)CNC(=O)[C@H](CCCNC(=N)N)NC(=O)[C@H](CO)NC(=O)[C@H](CC(C)C)NC(=O)CN)CSSC[C@@H](C(=O)O)NC(=O)CNC(=O)[C@H](CC(C)C)NC(=O)CNC(=O)[C@H](CO)NC(=O)[C@H](CCSC)NC(=O)[C@H](CO)NC(=O)[C@H](CCCNC(=N)N)NC1=O [AE] (H-GLSRGCFGLKLDRIRSMSGLGC-OH; disulfide 6-22 (inferred); N-terminus and C-terminus assumed) | – | – | 0.3% | 0.3% |
| CC[C@H](C)[C@@H]1NC(=O)[C@H](CCCNC(=N)N)NC(=O)[C@H](CC(=O)O)NC(=O)[C@H](CC(C)C)NC(=O)[C@H](CCCCN)NC(=O)[C@H](CC(C)C)NC(=O)CNC(=O)[C@H](Cc2ccccc2)NC(=O)[C@@H](NC(=O)CNC(=O)[C@H](CCCNC(=N)N)NC(=O)[C@H](CO)NC(=O)[C@H](CC(C)C)NC(=O)CN)CSSC[C@@H](C(=O)O)NC(=O)CNC(=O)[C@H](CC(C)C)NC(=O)CNC(=O)[C@H](CO)NC(=O)[C@H](CCSC)NC(=O)[C@H](CO)NC(=O)[C@H](CCCNC(N)=O)NC1=O [AF] (H-GLSRGCFGLKLDRI[Cit]SMSGLGC-OH; disulfide 6-22 (inferred); N-terminus and C-terminus assumed) | – | – | 1.4% | 2% |
| CC[C@H](C)[C@@H]1NC(=O)[C@H](CCCNC(=N)N)NC(=O)[C@H](CC(=O)O)NC(=O)[C@H](CC(C)C)NC(=O)[C@H](CCCCN)NC(=O)[C@H](CC(C)C)NC(=O)CNC(=O)[C@H](Cc2ccccc2)NC(=O)[C@@H](NC(=O)CNC(=O)[C@H](CCCNC(=N)N)NC(=O)[C@H](CO)NC(=O)[C@H](CC(C)C)NC(=O)CN)CSSC[C@@H](C(=O)O)NC(=O)CNC(=O)[C@H](CC(C)C)NC(=O)CNC(=O)[C@H](CO)NC(=O)[C@H](C(C)C)NC(=O)[C@H](CO)NC(=O)CNC1=O [AG] (H-GLSRGCFGLKLDRIGSVSGLGC-OH; disulfide 6-22 (inferred); N-terminus and C-terminus assumed) | – | – | 10% | 65% |
| CC[C@H](C)[C@@H]1NC(=O)[C@H](CCCNC(=N)N)NC(=O)[C@H](CC(=O)O)NC(=O)[C@H](CC(C)C)NC(=O)[C@H](CCCCN)NC(=O)[C@H](CC(C)C)NC(=O)CNC(=O)[C@H](Cc2ccccc2)NC(=O)[C@@H](N)CSSC[C@@H](C(=O)O)NC(=O)CNC(=O)[C@H](CC(C)C)NC(=O)CNC(=O)[C@H](CO)NC(=O)[C@H](CCSC)NC(=O)[C@H](CO)NC(=O)CNC1=O [AX] (H-CFGLKLDRIGSMSGLGC-OH; disulfide 1-17 (inferred); N-terminus and C-terminus assumed) | 18% | 69% | – | – |
| CC[C@H](C)[C@@H]1NC(=O)[C@H](CCCNC(=N)N)NC(=O)[C@H](CC(=O)O)NC(=O)[C@H](CC(C)C)NC(=O)[C@H](CCC(N)=O)NC(=O)[C@H](CC(C)C)NC(=O)CNC(=O)[C@H](Cc2ccccc2)NC(=O)[C@@H](NC(=O)CNC(=O)[C@H](CCCNC(=N)N)NC(=O)[C@H](CO)NC(=O)[C@H](CC(C)C)NC(=O)CN)CSSC[C@@H](C(=O)O)NC(=O)CNC(=O)[C@H](CC(C)C)NC(=O)CNC(=O)[C@H](CO)NC(=O)[C@H](CCSC)NC(=O)[C@H](CO)NC(=O)CNC1=O [BG] (H-GLSRGCFGLQLDRIGSMSGLGC-OH; disulfide 6-22) | 9% | 45% | – | – |

Second part, led by results:

| cGMP response relative to 1 uM CNP22 (%) at 0.01 µM [1] | cGMP response relative to 1 uM CNP22 (%) at 1 µM [2] | SMILES | cGMP response relative to 1 uM CNP22 (%) at 0.01 µM (NIH3T3, […]) | cGMP response relative to 1 uM CNP22 (%) at 1 µM (NIH3T3, […]) |
| --- | --- | --- | --- | --- |
| 4% | 68% | CC[C@H](C)[C@@H]1NC(=O)[C@H](CCCNC(=N)N)NC(=O)[C@H](CC(=O)O)NC(=O)[C@H](CC(C)C)NC(=O)[C@H](CCCCN)NC(=O)[C@H]([C@@H](C)O)NC(=O)CNC(=O)[C@H](Cc2ccccc2)NC(=O)[C@@H](NC(=O)CNC(=O)[C@H](CCCNC(=N)N)NC(=O)[C@H](CO)NC(=O)[C@H](CC(C)C)NC(=O)CN)CSSC[C@@H](C(=O)O)NC(=O)CNC(=O)[C@H](CC(C)C)NC(=O)CNC(=O)[C@H](CO)NC(=O)[C@H](CCSC)NC(=O)[C@H](CO)NC(=O)CNC1=O [AD] (H-GLSRGCFGTKLDRIGSMSGLGC-OH; disulfide 6-22) | – | – |
| 0.2% | 8% | CC[C@H](C)[C@@H]1NC(=O)[C@H](CCCNC(=N)N)NC(=O)[C@H](CC(=O)O)NC(=O)[C@H](CC(C)C)NC(=O)[C@H](CCCCN)NC(=O)[C@H](CC(C)C)NC(=O)CNC(=O)[C@H](Cc2ccccc2)NC(=O)[C@@H](NC(=O)CNC(=O)[C@H](CCCNC(=N)N)NC(=O)[C@H](CO)NC(=O)[C@H](CC(C)C)NC(=O)CN)CSSC[C@@H](C(=O)O)NC(=O)CNC(=O)[C@H](C(C)C)NC(=O)CNC(=O)[C@H](CO)NC(=O)[C@H](CCSC)NC(=O)[C@H](CO)NC(=O)CNC1=O [AJ] (H-GLSRGCFGLKLDRIGSMSGVGC-OH; disulfide 6-22 (inferred); N-terminus and C-terminus assumed) | – | – |
| 1% | 21% | CC[C@H](C)[C@@H]1NC(=O)[C@H](CCCNC(=N)N)NC(=O)[C@H](CC(=O)O)NC(=O)[C@H](CC(C)C)NC(=O)[C@H](CCCCN)NC(=O)[C@H](CC(C)C)NC(=O)CNC(=O)[C@H](Cc2ccccc2)NC(=O)[C@@H](NC(=O)CNC(=O)[C@H](CCCNC(=N)N)NC(=O)[C@H](CO)NC(=O)[C@H](CC(C)C)NC(=O)CN)CSSC[C@@H](C(=O)O)NC(=O)CNC(=O)[C@H](CC(C)(C)C)NC(=O)CNC(=O)[C@H](CO)NC(=O)[C@H](CCSC)NC(=O)[C@H](CO)NC(=O)CNC1=O [AK] (H-GLSRGCFGLKLDRIGSMSG[tBuAla]GC-OH; disulfide 6-22 (inferred); N-terminus and C-terminus assumed) | – | – |
| 6% | 33% | CC[C@H](C)[C@@H]1NC(=O)[C@H](CCCNC(=N)N)NC(=O)[C@H](CC(=O)O)NC(=O)[C@H](CC(C)C)NC(=O)[C@H](CCCNC(N)=O)NC(=O)[C@H](CC(C)C)NC(=O)CNC(=O)[C@H](Cc2ccccc2)NC(=O)[C@@H](NC(=O)CNC(=O)[C@H](CCCNC(=N)N)NC(=O)[C@H](CO)NC(=O)[C@H](CC(C)C)NC(=O)CN)CSSC[C@@H](C(=O)O)NC(=O)CNC(=O)[C@H](CC(C)C)NC(=O)CNC(=O)[C@H](CO)NC(=O)[C@H](CCSC)NC(=O)[C@H](CO)NC(=O)CNC1=O [BF] (H-GLSRGCFGL[Cit]LDRIGSMSGLGC-OH; disulfide 6-22 (inferred); N-terminus and C-terminus assumed) | – | – |
